Assay results taken from the NIST ThermoML archive (doi:10.1016/j.jct.2012.09.026).

Assay: xn = mol fraction of the nth substance listed
Details: Liquid

CC(C)(C)O [2-methylpropan-2-ol] + O
mass density [kg/m3]
Details	278.15 K	288.15 K	298.15 K	308.15 K	323.15 K
101.3 kPa, Vibrating tube method, x1 = 0.0248	986.88	985.26	982.45	978.65	971.52
101.3 kPa, Vibrating tube method, x1 = 0.04241	981.87	978.77	974.54	969.43	960.77
101.3 kPa, Vibrating tube method, x1 = 0.05887	977	971.81	965.94	959.67	949.57
101.3 kPa, Vibrating tube method, x1 = 0.08929	963.35	956.03	949.01	941.57	930.6
101.3 kPa, Vibrating tube method, x1 = 0.1125	951.21	943.7	936.18	928.56	916.92
101.3 kPa, Vibrating tube method, x1 = 0.1566	929.91	922.09	914.18	906.33	893.97
101.3 kPa, Vibrating tube method, x1 = 0.208	910.57	902.66	894.55	886.22	873.34
101.3 kPa, Vibrating tube method, x1 = 0.3023	882.17	874	865.6	856.97	843.45
101.3 kPa, Vibrating tube method, x1 = 0.4045	860.22	851.78	843.11	834.17	820.18
101.3 kPa, Vibrating tube method, x1 = 0.4827	847.15	838.7	830.01	820.93	806.67
101.3 kPa, Vibrating tube method, x1 = 0.5344	839.61	830.98	822.05	812.83	798.37
101.3 kPa, Vibrating tube method, x1 = 0.6029	831.08	822.27	813.22	803.86	789.18
101.3 kPa, Vibrating tube method, x1 = 0.726	818.36	809.38	800.1	790.54	775.51
101.3 kPa, Vibrating tube method, x1 = 0.7999	812.56	803.46	794.07	784.37	768.91
101.3 kPa, Vibrating tube method, x1 = 0.8711	–	797.8	788.3	778.45	763
101.3 kPa, Vibrating tube method, x1 = 0.9183	–	794.66	785.07	775.09	759.52
101.3 kPa, Vibrating tube method, x1 = 0.9574	–	–	782.74	772.63	756.76
101.3 kPa, Vibrating tube method, x1 = 1	–	–	–	770.14	753.94
10000 kPa, Constant-volume piezometry, x1 = 0.0248	990.83	989.1	986.4	982.6	975.58
10000 kPa, Constant-volume piezometry, x1 = 0.04241	985.44	982.35	978.4	973.49	965.03
10000 kPa, Constant-volume piezometry, x1 = 0.05887	980.38	975.51	969.98	963.89	954.03
10000 kPa, Constant-volume piezometry, x1 = 0.08929	967.1	960.11	953.39	946.1	935.46
10000 kPa, Constant-volume piezometry, x1 = 0.1125	955.35	948.15	940.81	933.31	922.12
10000 kPa, Constant-volume piezometry, x1 = 0.1566	934.55	927.05	919.21	911.53	899.59
10000 kPa, Constant-volume piezometry, x1 = 0.208	915.88	908.09	899.99	891.88	879.35
10000 kPa, Constant-volume piezometry, x1 = 0.3023	888.19	880.07	871.71	863.34	850.13
10000 kPa, Constant-volume piezometry, x1 = 0.4045	866.8	858.48	849.93	841.23	827.69
10000 kPa, Constant-volume piezometry, x1 = 0.4827	854.18	845.78	837.26	828.5	814.74
10000 kPa, Constant-volume piezometry, x1 = 0.5344	–	838.32	829.58	820.71	806.74
10000 kPa, Constant-volume piezometry, x1 = 0.6029	–	–	821.11	812.19	797.93
10000 kPa, Constant-volume piezometry, x1 = 0.726	–	–	–	799.44	784.92
10000 kPa, Constant-volume piezometry, x1 = 0.7999	–	–	–	–	778.73
10000 kPa, Constant-volume piezometry, x1 = 0.8711	–	–	–	–	773.1
10000 kPa, Constant-volume piezometry, x1 = 0.9183	–	–	–	–	769.84
10000 kPa, Constant-volume piezometry, x1 = 0.9574	–	–	–	–	767.23
10000 kPa, Constant-volume piezometry, x1 = 1	–	–	–	–	764.58
25000 kPa, Constant-volume piezometry, x1 = 0.0248	996.63	994.94	992.33	988.54	981.52
25000 kPa, Constant-volume piezometry, x1 = 0.04241	990.81	987.9	984.21	979.65	971.36
25000 kPa, Constant-volume piezometry, x1 = 0.05887	985.66	981.16	975.95	970.24	960.64
25000 kPa, Constant-volume piezometry, x1 = 0.08929	972.88	966.27	959.85	952.8	942.55
25000 kPa, Constant-volume piezometry, x1 = 0.1125	961.59	954.74	947.61	940.3	929.62
25000 kPa, Constant-volume piezometry, x1 = 0.1566	941.34	934.17	926.51	919.1	907.6
25000 kPa, Constant-volume piezometry, x1 = 0.208	923.3	915.74	907.83	900.03	887.94
25000 kPa, Constant-volume piezometry, x1 = 0.3023	896.35	888.45	880.25	872.28	859.69
25000 kPa, Constant-volume piezometry, x1 = 0.4045	875.55	867.58	859.23	850.99	838.16
25000 kPa, Constant-volume piezometry, x1 = 0.4827	863.45	855.38	847.01	838.84	825.82
25000 kPa, Constant-volume piezometry, x1 = 0.5344	–	848.18	839.65	831.4	818.13
25000 kPa, Constant-volume piezometry, x1 = 0.6029	–	–	831.63	823.36	809.81
25000 kPa, Constant-volume piezometry, x1 = 0.726	–	–	–	811.34	797.59
25000 kPa, Constant-volume piezometry, x1 = 0.7999	–	–	–	–	791.84
25000 kPa, Constant-volume piezometry, x1 = 0.8711	–	–	–	–	786.62
25000 kPa, Constant-volume piezometry, x1 = 0.9183	–	–	–	–	783.6
25000 kPa, Constant-volume piezometry, x1 = 0.9574	–	–	–	–	781.19
25000 kPa, Constant-volume piezometry, x1 = 1	–	–	–	–	778.73
50000 kPa, Constant-volume piezometry, x1 = 0.0248	1005.84	1004.75	1002.03	998.04	991.13
50000 kPa, Constant-volume piezometry, x1 = 0.04241	999.56	997.38	993.67	989.37	981.39
50000 kPa, Constant-volume piezometry, x1 = 0.05887	994.6	990.56	985.61	980.26	971.01
50000 kPa, Constant-volume piezometry, x1 = 0.08929	982.34	976.26	970.06	963.39	953.61
50000 kPa, Constant-volume piezometry, x1 = 0.1125	971.7	965.1	958.37	951.52	941.17
50000 kPa, Constant-volume piezometry, x1 = 0.1566	952.1	945.1	937.98	931.05	920.03
50000 kPa, Constant-volume piezometry, x1 = 0.208	934.42	927.25	920	912.67	901.32
50000 kPa, Constant-volume piezometry, x1 = 0.3023	908.07	900.8	893.22	885.81	874.39
50000 kPa, Constant-volume piezometry, x1 = 0.4045	887.79	880.62	872.83	865.39	853.64
50000 kPa, Constant-volume piezometry, x1 = 0.4827	876.1	869.2	861.18	853.93	841.81
50000 kPa, Constant-volume piezometry, x1 = 0.5344	–	862.25	854.14	846.76	834.43
50000 kPa, Constant-volume piezometry, x1 = 0.6029	–	–	846.6	839.04	826.63
50000 kPa, Constant-volume piezometry, x1 = 0.726	–	–	–	827.94	815.19
50000 kPa, Constant-volume piezometry, x1 = 0.7999	–	–	–	–	809.91
50000 kPa, Constant-volume piezometry, x1 = 0.8711	–	–	–	–	805.23
50000 kPa, Constant-volume piezometry, x1 = 0.9183	–	–	–	–	802.47
50000 kPa, Constant-volume piezometry, x1 = 0.9574	–	–	–	–	800.32
50000 kPa, Constant-volume piezometry, x1 = 1	–	–	–	–	798.2
75000 kPa, Constant-volume piezometry, x1 = 0.0248	1014.43	1014.19	1011.23	1006.97	1000.34
75000 kPa, Constant-volume piezometry, x1 = 0.04241	1007.73	1006.42	1002.58	998.3	990.63
75000 kPa, Constant-volume piezometry, x1 = 0.05887	1002.96	999.48	994.71	989.51	980.49
75000 kPa, Constant-volume piezometry, x1 = 0.08929	991.23	985.6	979.52	973.24	963.7
75000 kPa, Constant-volume piezometry, x1 = 0.1125	981	974.66	968.17	961.84	951.62
75000 kPa, Constant-volume piezometry, x1 = 0.1566	961.89	955.07	948.39	941.93	931.22
75000 kPa, Constant-volume piezometry, x1 = 0.208	944.32	937.59	930.82	924	913.19
75000 kPa, Constant-volume piezometry, x1 = 0.3023	918.19	911.52	904.74	897.73	887.1
75000 kPa, Constant-volume piezometry, x1 = 0.4045	898.01	891.74	884.67	877.69	866.87
75000 kPa, Constant-volume piezometry, x1 = 0.4827	886.19	880.7	873.35	866.59	855.33
75000 kPa, Constant-volume piezometry, x1 = 0.5344	–	873.92	866.45	859.52	848.15
75000 kPa, Constant-volume piezometry, x1 = 0.6029	–	–	859.03	851.9	840.58
75000 kPa, Constant-volume piezometry, x1 = 0.726	–	–	–	841.27	829.57
75000 kPa, Constant-volume piezometry, x1 = 0.7999	–	–	–	–	824.52
75000 kPa, Constant-volume piezometry, x1 = 0.8711	–	–	–	–	820.17
75000 kPa, Constant-volume piezometry, x1 = 0.9183	–	–	–	–	817.6
75000 kPa, Constant-volume piezometry, x1 = 0.9574	–	–	–	–	815.64
75000 kPa, Constant-volume piezometry, x1 = 1	–	–	–	–	813.79
100000 kPa, Constant-volume piezometry, x1 = 0.0248	1022.28	1022.71	1019.69	1015.14	1009.12
100000 kPa, Constant-volume piezometry, x1 = 0.04241	1014.85	1014.15	1010.64	1006.32	998.9
100000 kPa, Constant-volume piezometry, x1 = 0.05887	1009.82	1007.36	1003.04	997.93	989.01
100000 kPa, Constant-volume piezometry, x1 = 0.08929	999.16	993.91	988.13	982.34	972.81
100000 kPa, Constant-volume piezometry, x1 = 0.1125	988.91	983.36	976.75	970.82	961.04
100000 kPa, Constant-volume piezometry, x1 = 0.1566	970.36	964.36	957.51	951.42	941.06
100000 kPa, Constant-volume piezometry, x1 = 0.208	953.46	947.22	940.04	933.91	923.15
100000 kPa, Constant-volume piezometry, x1 = 0.3023	927.69	921.12	915	908.14	897.26
100000 kPa, Constant-volume piezometry, x1 = 0.4045	907.4	901.88	895.56	888.2	878.13
100000 kPa, Constant-volume piezometry, x1 = 0.4827	895.03	890.44	884.31	877.25	867.33
100000 kPa, Constant-volume piezometry, x1 = 0.5344	–	883.95	877.51	870.36	860.41
100000 kPa, Constant-volume piezometry, x1 = 0.6029	–	–	869.84	863.06	852.9
100000 kPa, Constant-volume piezometry, x1 = 0.726	–	–	–	852.47	842.31
100000 kPa, Constant-volume piezometry, x1 = 0.7999	–	–	–	–	837.55
100000 kPa, Constant-volume piezometry, x1 = 0.8711	–	–	–	–	833.28
100000 kPa, Constant-volume piezometry, x1 = 0.9183	–	–	–	–	830.96
100000 kPa, Constant-volume piezometry, x1 = 0.9574	–	–	–	–	829.12
100000 kPa, Constant-volume piezometry, x1 = 1	–	–	–	–	827.34
